Measurements published in patent publication US4110327A, “2,3 Diketo-piperazinocarbonylamino alkanoic acids and derivatives” (Toyama Chemical Co., Ltd., priority 1974, dated 1978).
In brackets after ≈: the same amount, converted by molar mass. Values belong to the compound of their own block, whether it stands above or below them.

Legend:
Format in all cases: cell-based
Proteus morganii = assay: MIC against clinical isolates; conditions: clinical isolate, unit assumed
Klebsiella pneumoniae [1] = assay: MIC against clinical isolates; conditions: unit assumed
Escherichia coli = assay: MIC against clinical isolates; conditions: unit assumed
Staphylococcus aureus = assay: MIC against clinical isolates; conditions: unit assumed
Klebsiella pneumoniae [2] = assay: MIC against standard strain, plate method; conditions: unit assumed
Summary of the method: (§1)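 Agar plate dilution MIC in heart infusion agar, pH 7.4. Inoculum was 10^4 cells per plate, from a suspension of 10^6 cells/ml.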

Proteus vulgaris 3027 = assay: MIC against standard strain, plate method; conditions: Proteus vulgaris 3027, standard strain; unit assumed
Summary of the method: as §1

[3] = tested on: Staphylococcus aureus 209p; assay: MIC against standard strain, plate method; conditions: unit assumed
Summary of the method: as §1

Escherichia coli NIHJ = assay: MIC against standard strain, plate method; conditions: unit assumed
Summary of the method: as §1

[4] = tested on: Pseudomonas aeruginosa I.F.O.; assay: MIC against standard strain, plate method; conditions: unit assumed
Summary of the method: as §1

Proteus rettgeri = assay: MIC against clinical isolates; conditions: clinical isolate, unit assumed
Proteus mirabilis = assay: MIC against clinical isolates; conditions: clinical isolate, unit assumed
Proteus vulgaris = assay: MIC against clinical isolates; conditions: clinical isolate, unit assumed
Pseudomonas aeruginosa = assay: MIC against clinical isolates; conditions: unit assumed

Compound: Cc1nnc(SCC2=C(C(=O)O)N3C(=O)C(NC(=O)C(NC(=O)N4CCN(C)C(=O)C4=O)c4ccccc4)C3SC2)s1 (single isomer, unassigned) [compound 62]
MIC (Proteus morganii): 3.13 µg/mL (≈ 4.95 µM) | MIC (Klebsiella pneumoniae [1]; clinical isolate GN 917): 6.25 µg/mL (≈ 9.89 µM) | MIC (Klebsiella pneumoniae [1]; clinical isolate GN 4081): 12.5 µg/mL (≈ 19.8 µM) | MIC (Klebsiella pneumoniae [1]; clinical isolate GN 4117): 25 µg/mL (≈ 39.6 µM) | MIC (Escherichia coli; clinical isolate GN 3435): 6.25 µg/mL (≈ 9.89 µM) | MIC (Escherichia coli; clinical isolate GN 3452): 6.25 µg/mL (≈ 9.89 µM) | MIC (Escherichia coli; clinical isolate GN 3465): 25 µg/mL (≈ 39.6 µM) | MIC (Escherichia coli; clinical isolate GN 3481): 6.25 µg/mL (≈ 9.89 µM) | MIC (Escherichia coli; clinical isolate GN 3611): 200 µg/mL (≈ 317 µM) | MIC (Escherichia coli; clinical isolate K-1): 6.25 µg/mL (≈ 9.89 µM) | MIC (Escherichia coli; clinical isolate K-2): 12.5 µg/mL (≈ 19.8 µM) | MIC (Escherichia coli; clinical isolate K-3): 200 µg/mL (≈ 317 µM) | MIC (Escherichia coli; clinical isolate K-4): 12.5 µg/mL (≈ 19.8 µM) | MIC (Staphylococcus aureus; clinical isolate F-1): 3.13 µg/mL (≈ 4.95 µM) | MIC (Staphylococcus aureus; clinical isolate F-2): 0.78 µg/mL (≈ 1.23 µM) | MIC (Staphylococcus aureus; clinical isolate F-3): 1.56 µg/mL (≈ 2.47 µM) | MIC (Staphylococcus aureus; clinical isolate F-4): 1.56 µg/mL (≈ 2.47 µM) | MIC (Staphylococcus aureus; clinical isolate F-5): 12.5 µg/mL (≈ 19.8 µM) | MIC (Staphylococcus aureus; clinical isolate MS 8588): 1.56 µg/mL (≈ 2.47 µM) | MIC (Staphylococcus aureus; clinical isolate MS 8596): 0.78 µg/mL (≈ 1.23 µM) | MIC (Staphylococcus aureus; clinical isolate MS 8619): 0.78 µg/mL (≈ 1.23 µM) | MIC (Staphylococcus aureus; clinical isolate MS 8684): 1.56 µg/mL (≈ 2.47 µM) | MIC (Staphylococcus aureus; clinical isolate MS 8713): 1.56 µg/mL (≈ 2.47 µM) | MIC (Klebsiella pneumoniae [2]): 1.57 µg/mL (≈ 2.49 µM) | MIC (Proteus vulgaris 3027): 3.13 µg/mL (≈ 4.95 µM) | MIC [3]: 0.79 µg/mL (≈ 1.25 µM) | MIC (Escherichia coli NIHJ): < 0.1 µg/mL | MIC [4]: 50 µg/mL (≈ 79.1 µM) | MIC (Proteus rettgeri): 6.25 µg/mL (≈ 9.89 µM) | MIC (Proteus mirabilis): 6.25 µg/mL (≈ 9.89 µM) | MIC (Proteus vulgaris): 3.13 µg/mL (≈ 4.95 µM) | MIC (Pseudomonas aeruginosa; clinical isolate GN 82): 100 µg/mL (≈ 158 µM) | MIC (Pseudomonas aeruginosa; clinical isolate GN 163): 50 µg/mL (≈ 79.1 µM) | MIC (Pseudomonas aeruginosa; clinical isolate GN 221): 50 µg/mL (≈ 79.1 µM) | MIC (Pseudomonas aeruginosa; clinical isolate GN 244): 100 µg/mL (≈ 158 µM) | MIC (Pseudomonas aeruginosa; clinical isolate GN 376): 100 µg/mL (≈ 158 µM) | MIC (Pseudomonas aeruginosa; clinical isolate GN 383): 100 µg/mL (≈ 158 µM) | MIC (Pseudomonas aeruginosa; clinical isolate GN 1035): 200 µg/mL (≈ 317 µM) | MIC (Pseudomonas aeruginosa; clinical isolate GN 1091): 100 µg/mL (≈ 158 µM) | MIC (Pseudomonas aeruginosa; clinical isolate GN 2565): 100 µg/mL (≈ 158 µM) | MIC (Pseudomonas aeruginosa; clinical isolate GN 2987): 50 µg/mL (≈ 79.1 µM) | MIC (Pseudomonas aeruginosa; clinical isolate S-1): 200 µg/mL (≈ 317 µM) | MIC (Pseudomonas aeruginosa; clinical isolate S-2): 200 µg/mL (≈ 317 µM) | MIC (Pseudomonas aeruginosa; clinical isolate S-3): 200 µg/mL (≈ 317 µM) | MIC (Pseudomonas aeruginosa; clinical isolate S-4): 200 µg/mL (≈ 317 µM)

Compound: CC(=O)OCC1=C(C(=O)O)N2C(=O)C(NC(=O)C(NC(=O)N3CCN(C)C(=O)C3=O)c3ccccc3)C2SC1 (single isomer, unassigned) [compound 60]
MIC (Proteus morganii): 3.13 µg/mL (≈ 5.59 µM) | MIC (Klebsiella pneumoniae [1]; clinical isolate GN 917): 6.25 µg/mL (≈ 11.2 µM) | MIC (Klebsiella pneumoniae [1]; clinical isolate GN 4081): 25 µg/mL (≈ 44.7 µM) | MIC (Klebsiella pneumoniae [1]; clinical isolate GN 4117): 25 µg/mL (≈ 44.7 µM) | MIC (Escherichia coli; clinical isolate GN 3435): 6.25 µg/mL (≈ 11.2 µM) | MIC (Escherichia coli; clinical isolate GN 3452): 12.5 µg/mL (≈ 22.3 µM) | MIC (Escherichia coli; clinical isolate GN 3465): 100 µg/mL (≈ 179 µM) | MIC (Escherichia coli; clinical isolate GN 3481): 6.25 µg/mL (≈ 11.2 µM) | MIC (Escherichia coli; clinical isolate GN 3611): > 200 µg/mL | MIC (Escherichia coli; clinical isolate K-1): 6.25 µg/mL (≈ 11.2 µM) | MIC (Escherichia coli; clinical isolate K-2): 12.5 µg/mL (≈ 22.3 µM) | MIC (Escherichia coli; clinical isolate K-3): 200 µg/mL (≈ 357 µM) | MIC (Escherichia coli; clinical isolate K-4): 25 µg/mL (≈ 44.7 µM) | MIC (Staphylococcus aureus; clinical isolate F-1): 3.13 µg/mL (≈ 5.59 µM) | MIC (Staphylococcus aureus; clinical isolate F-2): 0.78 µg/mL (≈ 1.39 µM) | MIC (Staphylococcus aureus; clinical isolate F-3): 1.56 µg/mL (≈ 2.79 µM) | MIC (Staphylococcus aureus; clinical isolate F-4): 1.56 µg/mL (≈ 2.79 µM) | MIC (Staphylococcus aureus; clinical isolate F-5): 50 µg/mL (≈ 89.4 µM) | MIC (Staphylococcus aureus; clinical isolate MS 8588): 1.56 µg/mL (≈ 2.79 µM) | MIC (Staphylococcus aureus; clinical isolate MS 8596): 0.78 µg/mL (≈ 1.39 µM) | MIC (Staphylococcus aureus; clinical isolate MS 8619): 0.78 µg/mL (≈ 1.39 µM) | MIC (Staphylococcus aureus; clinical isolate MS 8684): 1.56 µg/mL (≈ 2.79 µM) | MIC (Staphylococcus aureus; clinical isolate MS 8713): 0.78 µg/mL (≈ 1.39 µM) | MIC (Klebsiella pneumoniae [2]): 3.13 µg/mL (≈ 5.59 µM) | MIC (Proteus vulgaris 3027): 3.13 µg/mL (≈ 5.59 µM) | MIC [3]: 0.79 µg/mL (≈ 1.41 µM) | MIC (Escherichia coli NIHJ): < 0.1 µg/mL | MIC [4]: 25 µg/mL (≈ 44.7 µM) | MIC (Proteus rettgeri): 6.25 µg/mL (≈ 11.2 µM) | MIC (Proteus mirabilis): 3.13 µg/mL (≈ 5.59 µM) | MIC (Proteus vulgaris): 1.56 µg/mL (≈ 2.79 µM) | MIC (Pseudomonas aeruginosa; clinical isolate GN 82): 50 µg/mL (≈ 89.4 µM) | MIC (Pseudomonas aeruginosa; clinical isolate GN 163): 50 µg/mL (≈ 89.4 µM) | MIC (Pseudomonas aeruginosa; clinical isolate GN 221): 12.5 µg/mL (≈ 22.3 µM) | MIC (Pseudomonas aeruginosa; clinical isolate GN 244): 50 µg/mL (≈ 89.4 µM) | MIC (Pseudomonas aeruginosa; clinical isolate GN 376): 50 µg/mL (≈ 89.4 µM) | MIC (Pseudomonas aeruginosa; clinical isolate GN 383): 50 µg/mL (≈ 89.4 µM) | MIC (Pseudomonas aeruginosa; clinical isolate GN 1035): 200 µg/mL (≈ 357 µM) | MIC (Pseudomonas aeruginosa; clinical isolate GN 1091): 50 µg/mL (≈ 89.4 µM) | MIC (Pseudomonas aeruginosa; clinical isolate GN 2565): 100 µg/mL (≈ 179 µM) | MIC (Pseudomonas aeruginosa; clinical isolate GN 2987): 50 µg/mL (≈ 89.4 µM) | MIC (Pseudomonas aeruginosa; clinical isolate S-1): 200 µg/mL (≈ 357 µM) | MIC (Pseudomonas aeruginosa; clinical isolate S-2): 100 µg/mL (≈ 179 µM) | MIC (Pseudomonas aeruginosa; clinical isolate S-3): 100 µg/mL (≈ 179 µM) | MIC (Pseudomonas aeruginosa; clinical isolate S-4): 100 µg/mL (≈ 179 µM)

MIC (Proteus morganii): 1.56 µg/mL (≈ 2.72 µM) | MIC (Klebsiella pneumoniae [1]; clinical isolate GN 917): 6.25 µg/mL (≈ 10.9 µM) | MIC (Klebsiella pneumoniae [1]; clinical isolate GN 4081): 12.5 µg/mL (≈ 21.8 µM) | MIC (Klebsiella pneumoniae [1]; clinical isolate GN 4117): 12.5 µg/mL (≈ 21.8 µM) | MIC (Escherichia coli; clinical isolate GN 3435): 3.13 µg/mL (≈ 5.46 µM) | MIC (Escherichia coli; clinical isolate GN 3452): 6.25 µg/mL (≈ 10.9 µM) | MIC (Escherichia coli; clinical isolate GN 3465): 50 µg/mL (≈ 87.2 µM) | MIC (Escherichia coli; clinical isolate GN 3481): 3.13 µg/mL (≈ 5.46 µM) | MIC (Escherichia coli; clinical isolate GN 3611): 200 µg/mL (≈ 349 µM) | MIC (Escherichia coli; clinical isolate K-1): 3.13 µg/mL (≈ 5.46 µM) | MIC (Escherichia coli; clinical isolate K-2): 6.25 µg/mL (≈ 10.9 µM) | MIC (Escherichia coli; clinical isolate K-3): 100 µg/mL (≈ 174 µM) | MIC (Escherichia coli; clinical isolate K-4): 6.25 µg/mL (≈ 10.9 µM) | MIC (Staphylococcus aureus; clinical isolate F-1): 3.13 µg/mL (≈ 5.46 µM) | MIC (Staphylococcus aureus; clinical isolate F-2): 1.56 µg/mL (≈ 2.72 µM) | MIC (Staphylococcus aureus; clinical isolate F-3): 1.56 µg/mL (≈ 2.72 µM) | MIC (Staphylococcus aureus; clinical isolate F-4): 3.13 µg/mL (≈ 5.46 µM) | MIC (Staphylococcus aureus; clinical isolate F-5): 50 µg/mL (≈ 87.2 µM) | MIC (Staphylococcus aureus; clinical isolate MS 8588): 1.56 µg/mL (≈ 2.72 µM) | MIC (Staphylococcus aureus; clinical isolate MS 8596): 1.56 µg/mL (≈ 2.72 µM) | MIC (Staphylococcus aureus; clinical isolate MS 8619): 1.56 µg/mL (≈ 2.72 µM) | MIC (Staphylococcus aureus; clinical isolate MS 8684): 1.56 µg/mL (≈ 2.72 µM) | MIC (Staphylococcus aureus; clinical isolate MS 8713): 1.56 µg/mL (≈ 2.72 µM) | MIC (Klebsiella pneumoniae [2]): 3.13 µg/mL (≈ 5.46 µM) | MIC (Proteus vulgaris 3027): 3.13 µg/mL (≈ 5.46 µM) | MIC [3]: < 0.79 µg/mL | MIC (Escherichia coli NIHJ): < 0.79 µg/mL | MIC [4]: 25 µg/mL (≈ 43.6 µM) | MIC (Proteus rettgeri): 3.13 µg/mL (≈ 5.46 µM) | MIC (Proteus mirabilis): 1.56 µg/mL (≈ 2.72 µM) | MIC (Proteus vulgaris): 0.8 µg/mL (≈ 1.39 µM) | MIC (Pseudomonas aeruginosa; clinical isolate GN 82): 25 µg/mL (≈ 43.6 µM) | MIC (Pseudomonas aeruginosa; clinical isolate GN 163): 25 µg/mL (≈ 43.6 µM) | MIC (Pseudomonas aeruginosa; clinical isolate GN 221): 6.25 µg/mL (≈ 10.9 µM) | MIC (Pseudomonas aeruginosa; clinical isolate GN 244): 25 µg/mL (≈ 43.6 µM) | MIC (Pseudomonas aeruginosa; clinical isolate GN 376): 12.5 µg/mL (≈ 21.8 µM) | MIC (Pseudomonas aeruginosa; clinical isolate GN 383): 12.5 µg/mL (≈ 21.8 µM) | MIC (Pseudomonas aeruginosa; clinical isolate GN 1035): 100 µg/mL (≈ 174 µM) | MIC (Pseudomonas aeruginosa; clinical isolate GN 1091): 25 µg/mL (≈ 43.6 µM) | MIC (Pseudomonas aeruginosa; clinical isolate GN 2565): 50 µg/mL (≈ 87.2 µM) | MIC (Pseudomonas aeruginosa; clinical isolate GN 2987): 25 µg/mL (≈ 43.6 µM) | MIC (Pseudomonas aeruginosa; clinical isolate S-1): 50 µg/mL (≈ 87.2 µM) | MIC (Pseudomonas aeruginosa; clinical isolate S-2): 50 µg/mL (≈ 87.2 µM) | MIC (Pseudomonas aeruginosa; clinical isolate S-3): 50 µg/mL (≈ 87.2 µM) | MIC (Pseudomonas aeruginosa; clinical isolate S-4): 50 µg/mL (≈ 87.2 µM)
Compound: CCN1CCN(C(=O)NC(C(=O)NC2C(=O)N3C(C(=O)O)=C(COC(C)=O)CSC23)c2ccccc2)C(=O)C1=O (stereo not drawn) [compound 61]
